Structures are written as SMILES. Active and inactive are the calls of the source. The calls are words filed in the database; no cut-off is given here.

In data set [1] the target is T1, Amine oxidase [flavin-containing] A (Homo sapiens, UniProt P21397).
T1 sequence (P21397 whole entry): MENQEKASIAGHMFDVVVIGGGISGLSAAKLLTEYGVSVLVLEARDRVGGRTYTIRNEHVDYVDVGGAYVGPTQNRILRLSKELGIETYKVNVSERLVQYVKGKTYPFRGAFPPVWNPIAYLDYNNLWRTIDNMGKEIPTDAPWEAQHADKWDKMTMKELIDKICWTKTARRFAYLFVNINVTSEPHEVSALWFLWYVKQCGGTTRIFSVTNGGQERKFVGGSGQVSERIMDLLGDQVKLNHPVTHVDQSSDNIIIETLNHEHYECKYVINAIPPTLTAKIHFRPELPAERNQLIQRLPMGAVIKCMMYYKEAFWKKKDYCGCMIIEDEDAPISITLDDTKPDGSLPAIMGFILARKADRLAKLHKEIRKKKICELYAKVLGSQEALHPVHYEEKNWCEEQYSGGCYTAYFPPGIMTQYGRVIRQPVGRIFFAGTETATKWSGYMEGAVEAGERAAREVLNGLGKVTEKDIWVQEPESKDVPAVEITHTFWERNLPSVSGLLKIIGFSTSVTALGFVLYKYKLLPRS
The experiment in a line: Inhibition of human recombinant MAO-A expressed in baculovirus infected BTI insect cells at 20 uM using kynuramine as substrate after 30 mins by fluorescence assay relative to control. To be noted: 0.5 h.

The target in a further data set is Butyrylcholinesterase (Rattus norvegicus, UniProt Q9JKC1). The experiment in a line: Inhibition of rat serum BChE using butyrylthiocholine chloride as substrate incubated for 15 mins by Ellman's method. Background: Ellman's reagent forms a yellow product with free thiols.
Chain of Butyrylcholinesterase (Q9JKC1 whole entry): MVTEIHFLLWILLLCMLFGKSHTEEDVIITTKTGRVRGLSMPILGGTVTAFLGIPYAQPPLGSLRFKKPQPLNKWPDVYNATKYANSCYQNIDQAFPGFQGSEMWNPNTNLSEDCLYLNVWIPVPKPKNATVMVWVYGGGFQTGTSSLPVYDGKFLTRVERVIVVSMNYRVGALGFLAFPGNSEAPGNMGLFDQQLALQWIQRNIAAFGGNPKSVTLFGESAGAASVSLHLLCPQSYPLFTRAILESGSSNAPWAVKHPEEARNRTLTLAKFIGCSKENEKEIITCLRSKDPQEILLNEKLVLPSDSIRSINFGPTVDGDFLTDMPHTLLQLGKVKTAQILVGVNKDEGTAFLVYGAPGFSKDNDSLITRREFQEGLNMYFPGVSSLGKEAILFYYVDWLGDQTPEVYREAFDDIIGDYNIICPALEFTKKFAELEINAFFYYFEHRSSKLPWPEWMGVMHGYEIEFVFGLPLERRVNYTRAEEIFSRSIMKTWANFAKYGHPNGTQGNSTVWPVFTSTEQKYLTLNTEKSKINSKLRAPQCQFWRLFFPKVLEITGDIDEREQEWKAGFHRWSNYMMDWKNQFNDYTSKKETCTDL
The target of data set [2] is Acetylcholinesterase (Electrophorus electricus, UniProt O42275). The experiment in a line: Inhibition of electric eel AChE using acetylthiocholine chloride as substrate incubated for 15 mins by Ellman's method.
Chain of Acetylcholinesterase (Electrophorus electricus, UniProt O42275) (O42275 whole entry): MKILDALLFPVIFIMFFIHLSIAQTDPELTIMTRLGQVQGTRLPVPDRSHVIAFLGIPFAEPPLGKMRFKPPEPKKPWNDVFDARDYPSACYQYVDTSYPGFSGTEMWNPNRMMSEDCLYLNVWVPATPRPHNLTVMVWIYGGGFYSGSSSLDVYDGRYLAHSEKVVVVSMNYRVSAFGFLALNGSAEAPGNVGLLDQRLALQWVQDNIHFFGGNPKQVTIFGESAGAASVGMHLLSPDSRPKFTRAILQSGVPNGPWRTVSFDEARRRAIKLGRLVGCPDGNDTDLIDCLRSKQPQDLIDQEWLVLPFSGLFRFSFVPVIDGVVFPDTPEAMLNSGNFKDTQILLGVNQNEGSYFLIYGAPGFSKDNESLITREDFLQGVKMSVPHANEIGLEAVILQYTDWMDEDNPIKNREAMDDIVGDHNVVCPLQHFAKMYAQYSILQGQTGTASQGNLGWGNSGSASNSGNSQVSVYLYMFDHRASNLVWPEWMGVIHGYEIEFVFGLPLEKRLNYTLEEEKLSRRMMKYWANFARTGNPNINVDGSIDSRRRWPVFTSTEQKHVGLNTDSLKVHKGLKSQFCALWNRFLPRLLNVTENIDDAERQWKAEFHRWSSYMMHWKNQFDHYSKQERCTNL
The target of data set [3] is Cholinesterase (Homo sapiens, UniProt P06276). The experiment in a line: Inhibition of human serum BChE using butyrylthiocholine chloride as substrate incubated for 15 mins by Ellman's method.
Chain of Cholinesterase (Homo sapiens, UniProt P06276) (P06276 whole entry): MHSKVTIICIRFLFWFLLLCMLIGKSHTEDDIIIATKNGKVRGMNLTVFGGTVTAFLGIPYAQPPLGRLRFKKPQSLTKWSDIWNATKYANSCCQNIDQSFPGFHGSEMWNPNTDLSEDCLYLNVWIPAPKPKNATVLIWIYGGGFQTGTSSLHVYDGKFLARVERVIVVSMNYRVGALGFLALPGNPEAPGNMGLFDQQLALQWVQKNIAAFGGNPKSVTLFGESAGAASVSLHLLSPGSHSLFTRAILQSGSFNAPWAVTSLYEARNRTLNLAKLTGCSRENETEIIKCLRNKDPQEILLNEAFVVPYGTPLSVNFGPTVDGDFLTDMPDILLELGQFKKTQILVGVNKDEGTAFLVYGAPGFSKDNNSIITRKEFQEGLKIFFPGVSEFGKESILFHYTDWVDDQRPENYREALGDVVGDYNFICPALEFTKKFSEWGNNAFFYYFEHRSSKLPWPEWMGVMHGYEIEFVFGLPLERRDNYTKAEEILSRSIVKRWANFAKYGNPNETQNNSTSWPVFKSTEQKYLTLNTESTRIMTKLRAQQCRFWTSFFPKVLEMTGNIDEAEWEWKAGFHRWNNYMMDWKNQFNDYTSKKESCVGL
Data set [4] concerns the target Acetylcholinesterase (Homo sapiens, UniProt P22303). The experiment in a line: Inhibition of human erythrocyte AChE using acetylthiocholine chloride as substrate incubated for 15 mins by Ellman's method.
For data set [5], the target named is T2, Amine oxidase [flavin-containing] B (Homo sapiens, UniProt P27338).
T2 sequence (P27338 whole entry): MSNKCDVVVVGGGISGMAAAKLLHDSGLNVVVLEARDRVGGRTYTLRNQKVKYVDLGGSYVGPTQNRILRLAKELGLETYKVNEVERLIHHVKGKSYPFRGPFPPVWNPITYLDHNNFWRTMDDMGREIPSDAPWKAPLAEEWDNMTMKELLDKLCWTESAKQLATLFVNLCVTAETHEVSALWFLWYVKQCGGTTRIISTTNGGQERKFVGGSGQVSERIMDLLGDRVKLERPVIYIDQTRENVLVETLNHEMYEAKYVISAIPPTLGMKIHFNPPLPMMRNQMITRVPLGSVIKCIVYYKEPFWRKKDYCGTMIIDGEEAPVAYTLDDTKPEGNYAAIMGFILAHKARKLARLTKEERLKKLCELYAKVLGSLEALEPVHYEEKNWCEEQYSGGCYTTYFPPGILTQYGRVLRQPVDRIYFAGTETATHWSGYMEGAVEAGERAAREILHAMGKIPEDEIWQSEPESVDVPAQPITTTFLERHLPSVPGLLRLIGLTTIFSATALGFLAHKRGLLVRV
The experiment in a line: Inhibition of human recombinant MAO-B expressed in baculovirus infected BTI insect cells using kynuramine as substrate after 30 mins by fluorescence assay. In kind it is cell-based.

Data set [6] can be described thus: Selectivity index, ratio of IC50 for equine serum BChE to IC50 for electric eel AChE.
For data set [7], the target named is T3, Acetylcholinesterase (Rattus norvegicus, UniProt P37136).
T3 sequence (P37136 whole entry): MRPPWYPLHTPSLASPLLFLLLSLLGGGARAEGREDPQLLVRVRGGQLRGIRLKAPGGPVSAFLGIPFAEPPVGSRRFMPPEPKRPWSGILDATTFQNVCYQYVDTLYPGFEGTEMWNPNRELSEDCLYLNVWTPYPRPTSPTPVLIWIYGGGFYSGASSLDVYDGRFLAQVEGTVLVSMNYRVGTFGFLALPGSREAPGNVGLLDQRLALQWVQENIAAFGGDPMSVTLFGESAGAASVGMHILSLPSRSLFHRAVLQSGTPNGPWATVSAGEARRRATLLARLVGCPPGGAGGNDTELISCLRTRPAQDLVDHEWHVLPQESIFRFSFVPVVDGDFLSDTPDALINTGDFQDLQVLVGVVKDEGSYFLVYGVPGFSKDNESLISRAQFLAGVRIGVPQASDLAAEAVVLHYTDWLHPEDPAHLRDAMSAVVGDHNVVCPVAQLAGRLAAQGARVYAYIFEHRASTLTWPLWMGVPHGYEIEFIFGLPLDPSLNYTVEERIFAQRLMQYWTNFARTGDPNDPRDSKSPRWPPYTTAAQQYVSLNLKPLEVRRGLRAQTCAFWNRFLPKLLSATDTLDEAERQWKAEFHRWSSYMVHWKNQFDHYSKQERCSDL
The experiment in a line: Inhibition of rat cortex homogenate AChE using acetylthiocholine chloride as substrate incubated for 15 mins by Ellman's method.

In data set [8] the target is Cholinesterase (Equus caballus, UniProt P81908). The experiment in a line: Inhibition of equine serum BChE using butyrylthiocholine chloride as substrate incubated for 15 mins by Ellman's method.
Chain of Cholinesterase (Equus caballus, UniProt P81908) (P81908 whole entry): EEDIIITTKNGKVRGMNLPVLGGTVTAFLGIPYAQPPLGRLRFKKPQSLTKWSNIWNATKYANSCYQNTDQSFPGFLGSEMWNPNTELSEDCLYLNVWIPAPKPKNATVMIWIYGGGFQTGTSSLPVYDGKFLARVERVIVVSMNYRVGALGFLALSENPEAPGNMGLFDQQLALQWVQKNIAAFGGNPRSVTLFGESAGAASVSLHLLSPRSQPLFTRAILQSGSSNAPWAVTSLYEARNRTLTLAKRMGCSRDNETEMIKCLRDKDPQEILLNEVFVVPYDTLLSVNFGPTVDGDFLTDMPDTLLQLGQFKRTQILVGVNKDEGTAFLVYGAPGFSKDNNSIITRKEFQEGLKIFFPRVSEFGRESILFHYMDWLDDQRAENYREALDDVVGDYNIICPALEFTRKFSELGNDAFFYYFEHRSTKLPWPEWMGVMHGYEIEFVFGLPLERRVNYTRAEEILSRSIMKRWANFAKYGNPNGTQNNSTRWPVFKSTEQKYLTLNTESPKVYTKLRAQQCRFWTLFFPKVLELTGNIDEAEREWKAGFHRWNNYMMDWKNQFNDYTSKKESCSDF
Data set [9] has as its system SH-SY5Y. The experiment in a line: Cytotoxicity against human SH-SY5Y cells assessed as decrease in cell viability at 100 uM after 24 hrs by MTT assay. The format is cell-based. (In general: Tetrazolium dyes change colour on reduction, which living cells bring about.)
For data set [10], the target named is Acetylcholinesterase (Electrophorus electricus) (UniProt O42275). The experiment in a line: Mixed-type inhibition of electric eel AChE at 0.5 to 2 uM using acetylthiocholine chloride as substrate by Lineweaver-Burk plot analysis.
Chain of Acetylcholinesterase (Electrophorus electricus) (O42275 24-633 limits assumed): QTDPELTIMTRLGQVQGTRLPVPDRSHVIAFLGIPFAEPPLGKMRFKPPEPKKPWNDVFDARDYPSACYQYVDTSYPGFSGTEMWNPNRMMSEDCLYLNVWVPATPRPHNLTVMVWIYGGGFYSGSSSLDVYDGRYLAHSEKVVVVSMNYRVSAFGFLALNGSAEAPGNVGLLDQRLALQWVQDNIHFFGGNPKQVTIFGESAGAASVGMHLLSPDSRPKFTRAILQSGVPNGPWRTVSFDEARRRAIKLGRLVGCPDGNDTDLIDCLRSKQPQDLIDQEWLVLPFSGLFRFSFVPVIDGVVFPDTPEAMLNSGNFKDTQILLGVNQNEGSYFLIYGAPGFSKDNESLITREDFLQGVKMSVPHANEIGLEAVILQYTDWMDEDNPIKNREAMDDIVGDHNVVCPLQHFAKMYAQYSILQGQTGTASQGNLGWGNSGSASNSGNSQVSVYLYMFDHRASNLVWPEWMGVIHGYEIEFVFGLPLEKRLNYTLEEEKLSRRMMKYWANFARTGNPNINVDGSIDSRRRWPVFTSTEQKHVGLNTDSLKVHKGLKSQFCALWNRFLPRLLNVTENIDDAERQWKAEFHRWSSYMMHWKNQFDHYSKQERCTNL
Data set [11] is described as follows: Effective permeability of the compound at 100 ug/ml by PAMPA-BBB assay.
Data set [12] deals with SH-SY5Y. The experiment in a line: Cytotoxicity against human SH-SY5Y cells assessed as decrease in cell viability up to 10 uM after 24 hrs by MTT assay. The format is cell-based.
For data set [13], the target named is Butyrylcholinesterase (Rattus norvegicus) (UniProt Q9JKC1). The experiment in a line: Inhibition of rat serum BChE at 50 uM using butyrylthiocholine chloride as substrate incubated for 15 mins by Ellman's method relative to control.
Chain of Butyrylcholinesterase (Rattus norvegicus) (Q9JKC1 as listed by the source): as the sequence (Q9JKC1 whole entry) above
Data set [14] addresses Acetylcholinesterase (Electrophorus electricus) (UniProt O42275). The experiment in a line: Inhibition of electric eel AChE at 50 uM using acetylthiocholine chloride as substrate incubated for 15 mins by Ellman's method relative to control.
The target of data set [15] is Cholinesterase (Equus caballus) (UniProt P81908). The experiment in a line: Inhibition of equine serum BChE at 50 uM using butyrylthiocholine chloride as substrate incubated for 15 mins by Ellman's method relative to control.
Chain of Cholinesterase (Equus caballus) (P81908 whole entry): as the sequence (P81908 whole entry) above
For data set [16], the target named is T4, Acetylcholinesterase (Rattus norvegicus) (UniProt P37136).
T4 sequence (whole entry): T3 sequence (P37136 whole entry)
The experiment in a line: Inhibition of rat cortex homogenate AChE at 50 uM using acetylthiocholine chloride as substrate incubated for 15 mins by Ellman's method relative to control.

Chain of Acetylcholinesterase (Homo sapiens, UniProt P22303) (P22303 whole entry): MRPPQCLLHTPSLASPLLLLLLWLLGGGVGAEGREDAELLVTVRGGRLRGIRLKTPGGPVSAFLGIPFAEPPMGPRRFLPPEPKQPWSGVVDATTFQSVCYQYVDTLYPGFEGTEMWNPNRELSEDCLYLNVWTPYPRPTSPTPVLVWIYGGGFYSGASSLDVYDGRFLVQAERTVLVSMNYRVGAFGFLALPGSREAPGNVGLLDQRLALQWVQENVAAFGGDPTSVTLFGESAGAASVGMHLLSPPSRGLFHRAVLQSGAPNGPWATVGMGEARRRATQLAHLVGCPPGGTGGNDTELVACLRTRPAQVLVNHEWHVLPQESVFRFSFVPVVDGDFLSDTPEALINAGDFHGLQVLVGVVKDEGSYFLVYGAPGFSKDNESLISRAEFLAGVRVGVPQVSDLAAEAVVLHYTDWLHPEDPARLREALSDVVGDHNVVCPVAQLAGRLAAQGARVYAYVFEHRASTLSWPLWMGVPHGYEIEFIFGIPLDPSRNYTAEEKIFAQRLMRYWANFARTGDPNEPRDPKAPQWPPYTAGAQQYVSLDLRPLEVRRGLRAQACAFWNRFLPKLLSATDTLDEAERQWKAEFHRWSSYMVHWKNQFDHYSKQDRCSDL

As a reminder, the inhibition is the drop in the measured response relative to a control, in per cent. The term IC50 denotes the midpoint of a concentration-inhibition curve. Consider `CCN(CCCCN1C(=O)c2ccccc2C1=O)Cc1ccccc1OC`, for which the inhibition at 20 µM in data set [1] was under 5%. Further, the IC50 stood at 18.9 µM on Butyrylcholinesterase; 130 nM against Acetylcholinesterase [2]; 12.9 µM on Cholinesterase [3]; 280 nM on Acetylcholinesterase [4]; 9.4 µM in data set [5]; 40 nM against Acetylcholinesterase [7]. The compound also had an IC50 against Cholinesterase [8] of 31 µM. The Ratio IC50 in data set [6] was 238.
As for `CCN(CCCN1C(=O)c2ccccc2C1=O)Cc1ccccc1OC`, in data set [1], the inhibition at 20 µM was under 5%. For the same compound, the IC50 on Butyrylcholinesterase is 9.4 µM; against Acetylcholinesterase [2], 900 nM; against Cholinesterase [3] it was 14.6 µM; on Acetylcholinesterase [4] it was 4500 nM; in data set [5], 4.7 µM; against Acetylcholinesterase [7], 400 nM. The compound further had an IC50 against Cholinesterase [8] of 11.3 µM. In addition, the Ratio IC50 in data set [6] stood at 12.6.
On to `CCN(CCCCCCN1C(=O)c2ccccc2C1=O)Cc1ccccc1OC`, for which the inhibition at 20 µM in data set [1] was under 5%. The half-inhibitory concentration (IC50) worked out at 14.9 µM against Butyrylcholinesterase; 380 nM against Acetylcholinesterase [2]; 8.9 µM against Cholinesterase [3]; 590 nM against Acetylcholinesterase [4]; 11.7 µM in data set [5]; 330 nM at Acetylcholinesterase [7]. On Cholinesterase [8], this compound came in with an IC50 of 7.3 µM. Further, the Ratio IC50 in data set [6] was determined as 19.2.
For orientation: Papp means the rate of passage across a membrane or cell layer, normalised by area and donor concentration. High values mean fast passage, low ones slow passage. `C#CCN(CCCN1C(=O)c2ccccc2C1=O)Cc1ccccc1`: in data set [1], the inhibition at 20 µM was under 5%. The IC50 against Butyrylcholinesterase was 2.2 µM; against Acetylcholinesterase [2], 840 nM; against Cholinesterase [3], 3.8 µM; at Acetylcholinesterase [4], 1200 nM; in [5] it was 2.6 µM; at Acetylcholinesterase [7] it was 270 nM. The compound further returned an IC50 against Cholinesterase [8] of 2.5 µM. The values for the Activity in the data set on SH-SY5Y [9] and with SH-SY5Y [12] were 86.7% and “Non-Toxic”, respectively. Moreover, in data set [10], the inhibition entry is “Active”. This compound also yielded a Papp at 100 ug/ml in data set [11] of 26 ×10⁻⁶ cm/s. Moreover, in [6], the Ratio IC50 was determined as 3.
Take `CCN(CCCCCCN1C(=O)c2ccccc2C1=O)Cc1ccccc1`: the inhibition at 20 µM in [1] was under 5%. The IC50 on Butyrylcholinesterase came to 18.1 µM; at Acetylcholinesterase [2], 1000 nM; against Cholinesterase [3], 15.8 µM; on Acetylcholinesterase [4], 3700 nM; in [5], 12.2 µM; at Acetylcholinesterase [7], 3400 nM. On Cholinesterase [8], inhibition was half-maximal at 11 µM (IC50). For the same compound, the Ratio IC50 in [6] stood at 11.
On to `C#CCN[C@@H]1CCc2ccccc21` [RASAGILINE], for which the IC50 against Cholinesterase [3] stood at 4.76 µM; against Acetylcholinesterase [4], 19 nM.
Turning to `CCN(CCCCN1C(=O)c2ccccc2C1=O)Cc1ccccc1`, in [1], the inhibition at 20 µM is under 5%. Further, the 50% inhibitory concentration (IC50) at Butyrylcholinesterase stood at 13.3 µM; on Acetylcholinesterase [2], 430 nM; at Cholinesterase [3] it was 15.3 µM; at Acetylcholinesterase [4], 680 nM; in data set [5] it was 6.9 µM; against Acetylcholinesterase [7] it was 600 nM. Further, at Cholinesterase [8], the IC50 amounted to 9.8 µM. In addition, in [6], the Ratio IC50 worked out at 22.8.
In the case of `COc1ccccc1CN(C)CCCCN1C(=O)c2ccccc2C1=O`, the inhibition at 20 µM in data set [1] was under 5%. Also, the IC50 at Butyrylcholinesterase amounted to 9.1 µM; against Acetylcholinesterase [2], 1300 nM; in data set [5], 11.6 µM; at Acetylcholinesterase [7], 3700 nM; against Cholinesterase [8], 7.9 µM. Moreover, the Ratio IC50 in data set [6] was determined as 6.1.
As to `O=C1NC(=O)c2ccccc21`, the inhibition in [13], in data set [14], in data set [15] and in data set [16] was under 5% throughout.
